Assay results taken from publication PMC12301332, “Biased antagonism of a series of bicyclic CXCR2 intracellular allosteric modulators” (Frontiers in Pharmacology, 2025).

Tests used:
CXCR2 [1] = biological target: T1, CXCR2 (Homo sapiens, UniProt P25025); assay: NanoBRET-based G protein activation inhibition assay (REGA-SIGN Gαi1 dissociation) in HEK293A.CXCR2 cells; format: cell-based; details: n = 3; for IC50: mean; for Imax Gαi1 (maximum observed inhibitory effect): normalized to Imax of navarixin = 100%
T1 construct: expressed in transfected cells
T1 sequence (P25025 1-360): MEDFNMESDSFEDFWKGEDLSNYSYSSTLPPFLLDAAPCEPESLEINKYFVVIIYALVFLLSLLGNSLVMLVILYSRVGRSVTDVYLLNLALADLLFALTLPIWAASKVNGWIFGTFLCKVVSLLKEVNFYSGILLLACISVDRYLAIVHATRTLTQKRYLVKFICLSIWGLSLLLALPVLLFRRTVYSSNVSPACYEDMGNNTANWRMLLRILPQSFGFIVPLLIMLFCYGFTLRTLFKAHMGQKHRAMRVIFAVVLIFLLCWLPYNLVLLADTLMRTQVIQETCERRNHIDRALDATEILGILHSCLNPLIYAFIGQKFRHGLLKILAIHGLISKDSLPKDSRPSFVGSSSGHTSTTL
Description: Cells were trypsinized and resuspended at 3 × 10^5 cell/mL in the growth medium, whereafter they were incubated for 2 hours at RT. Cells were transfected in suspension using FuGENE® HD Transfection Reagent at a 3:1 reagent to DNA ratio in Opti-MEMTM I Reduced-Serum Medium, with the final DNA concentration of 1 μg/μL. The transfection mixture was incubated for 10 min at RT before adding it to the cell suspension. Transfected cells were seeded at 3.0 × 10^4 cells/well in a white, clear, flat-bottom 96-well plate coated with 100 μg/mL poly-D-lysin ([…], Sigma Aldrich) and incubated for 48 h at 37°C and 5% CO2. […] (2023)]. Following the 48-h incubation period, cells were washed with the assay buffer. Compounds were serially diluted in 1:500 Nano-Glo® Vivazine^TM working solution (#N2581, Promega), and 90 μL of compound/Vivazine mix was added, followed by incubation for 45 min at 37°C and 5% CO2. Plates were transferred to the FLIPR Penta system (Molecular Devices) at 37°C, and all steps onward are automated and performed by the FLIPR Penta system. After a 10-min equilibration period, the baseline BRET signal was determined by five consecutive reads followed by automatic administration of 10 μL of 10× ligand (Table 1) to the cell plate. Changes in the BRET signal was measured for 10 min, with each read spaced by 2.5 s. […] BRET ratios were extracted from ScreenWorks software (Molecular Devices) and represent the ratio between the acceptor emission of […]2 or mNG (G protein or β-arrestin recruitment, respectively) and NLuc donor emission. The basal BRET ratio was defined as the average BRET ratio of the five consecutive readings preceding ligand addition. Changes in BRET values post ligand administration (ΔBRET) were calculated for each well as a percentage difference to the previously defined basal BRET ratio. Average ΔBRET values were baseline corrected by subtracting the average negative control BRET ratio (unstimulated condition). […] AUCs were normalized to the positive control (stimulated condition); whereafter, dose-response curves were fitted to log (inhibitor) vs response (three parameters) in GraphPad 10.2.0 (GraphPad Software). […] Calculation 1: calculation of the BRET signal. • 1. […] NC correctedΔBRET=Δ[…]. • 4. a. Neg AUC of NC correctedΔBRET=Gα activation read out. b. Pos AUC of NC correctedΔBRET=β-arrestin recruitment.

CXCR2 [2] = biological target: T1, CXCR2; assay: NanoBRET β-arrestin1 recruitment inhibition assay (NanoLux) in HEK293A cells; format: cell-based; details: for Imax βarr1 (maximum observed inhibitory effect): normalized to Imax of navarixin = 100%
Description: Cells were trypsinized and resuspended at 3 × 10^5 cell/mL in the growth medium, whereafter they were incubated for 2 hours at RT. Cells were transfected in suspension using FuGENE® HD Transfection Reagent at a 3:1 reagent to DNA ratio in Opti-MEMTM I Reduced-Serum Medium, with the final DNA concentration of 1 μg/μL. The transfection mixture was incubated for 10 min at RT before adding it to the cell suspension. Transfected cells were seeded at 3.0 × 10^4 cells/well in a white, clear, flat-bottom 96-well plate coated with 100 μg/mL poly-D-lysin ([…], Sigma Aldrich) and incubated for 48 h at 37°C and 5% CO2. HEK293A cells were transiently co-transfected with plasmids encoding β-arrestin1 protein tagged with NLuc (donor) and CXCR2 protein tagged with mNeonGreen (mNG) acceptor in a 1:10 donor to acceptor ratio, as described previously ([Luís et al., 2022]). All subsequent steps are identical to those in “NanoBRET-based G protein activation inhibition assay,” which are described above. Measurements were acquired using a 440- to 480-nm donor emission filter (#0200-6179, Molecular Devices) and a 515- to 575-nm acceptor emission filter (#0200-6203, Molecular Devices) BRET ratios were extracted from ScreenWorks software (Molecular Devices) and represent the ratio between the acceptor emission of […]2 or mNG (G protein or β-arrestin recruitment, respectively) and NLuc donor emission. The basal BRET ratio was defined as the average BRET ratio of the five consecutive readings preceding ligand addition. Changes in BRET values post ligand administration (ΔBRET) were calculated for each well as a percentage difference to the previously defined basal BRET ratio. Average ΔBRET values were baseline corrected by subtracting the average negative control BRET ratio (unstimulated condition). […] AUCs were normalized to the positive control (stimulated condition); whereafter, dose-response curves were fitted to log (inhibitor) vs response (three parameters) in GraphPad 10.2.0 (GraphPad Software). […] Calculation 1: calculation of the BRET signal. • 1. […] NC correctedΔBRET=Δ[…]. • 4. a. Neg AUC of NC correctedΔBRET=Gα activation read out. b. Pos AUC of NC correctedΔBRET=β-arrestin recruitment.

[3] = CXCL1 at EC80, mean, n = 3, read-out: IC50 βarr1
[4] = CXCL2 at EC80, mean, n = 3, read-out: IC50 βarr1
[5] = CXCL3 at EC80, mean, n = 3, read-out: IC50 βarr1
[6] = CXCL5 at EC80, mean, n = 3, read-out: IC50 βarr1
[7] = CXCL6 at EC80, mean, n = 3, read-out: IC50 βarr1
[8] = CXCL7 at EC80, mean, n = 3, read-out: IC50 βarr1
[9] = CXCL8 at EC80, mean, n = 3, read-out: IC50 βarr1

Row | Structure (SMILES) | IC50 (CXCR2 [1]; CXCL1 at EC80) [nM] | IC50 (CXCR2 [1]; CXCL2 at EC80) [nM] | Imax Gαi1 (maximum observed inhibitory effect) (CXCR2 [1]; CXCL2 at EC80) [%] | IC50 (CXCR2 [1]; CXCL3 at EC80) [nM] | IC50 (CXCR2 [1]; CXCL5 at EC80) [nM] | Imax Gαi1 (maximum observed inhibitory effect) (CXCR2 [1]; CXCL5 at EC80) [%] | IC50 (CXCR2 [1]; CXCL6 at EC80) [nM] | IC50 (CXCR2 [1]; CXCL7 at EC80) [nM] | IC50 (CXCR2 [1]; CXCL8 at EC80) [nM] | IC50 (CXCR2 [2]; [3]) [nM] | Imax βarr1 (maximum observed inhibitory effect) (CXCR2 [2]; CXCL1 at EC80, n = 3) [%] | IC50 (CXCR2 [2]; [4]) [nM] | Imax βarr1 (maximum observed inhibitory effect) (CXCR2 [2]; CXCL2 at EC80, n = 3) [%] | IC50 (CXCR2 [2]; [5]) [nM] | Imax βarr1 (maximum observed inhibitory effect) (CXCR2 [2]; CXCL3 at EC80, n = 3) [%] | IC50 (CXCR2 [2]; [6]) [nM] | Imax βarr1 (maximum observed inhibitory effect) (CXCR2 [2]; CXCL5 at EC80, n = 3) [%] | IC50 (CXCR2 [2]; [7]) [nM] | Imax βarr1 (maximum observed inhibitory effect) (CXCR2 [2]; CXCL6 at EC80, n = 3) [%] | IC50 (CXCR2 [2]; [8]) [nM] | also measured
1 | CC(CO)Nc1nc(SCc2cccc(F)c2F)nc2cnccc12 (centres unmarked) [MVH-3] | > 15000 | 6240 ± 1150 | 100 | > 15000 | 10200 ± 6520 | 93.7 ± 5.53 | 7530 ± 1740 | 10900 ± 9580 | > 15000 | 980 ± 180 | 100 | 580 ± 170 | 100 | 1590 ± 430 | 100 | 840 ± 160 | 100 | 700 ± 170 | 100 | 160 ± 50 | Imax βarr1 (maximum observed inhibitory effect) (CXCR2 [2]; CXCL7 at EC80, n = 3): 95.75 ± 3.49%; IC50 (CXCR2 [2]; [9]): 1340 ± 450 nM; Imax βarr1 (maximum observed inhibitory effect) (CXCR2 [2]; CXCL8 at EC80, n = 3): 90.8 ± 4.62%
2 | CC(CO)Nc1nc(SCc2cccc(F)c2F)nc2oncc12 (centres unmarked) [MVH-24] | 2080 ± 420 | 1210 ± 630 | 100 | 14800 ± 10100 | 1430 ± 710 | 98.52 ± 2.04 | 1060 ± 750 | 750 ± 260 | 2490 ± 1240 | 170 ± 60 | 100 | 80 ± 40 | 100 | 140 ± 50 | 99.42 ± 0.85 | 90 ± 30 | 100 | 70 ± 20 | 100 | 30 ± 10 | Imax Gαi1 (maximum observed inhibitory effect) (CXCR2 [1]; CXCL1 at EC80): 96.47 ± 3.69%; Imax Gαi1 (maximum observed inhibitory effect) (CXCR2 [1]; CXCL3 at EC80): 100%; Imax Gαi1 (maximum observed inhibitory effect) (CXCR2 [1]; CXCL6 at EC80): 100%; Imax Gαi1 (maximum observed inhibitory effect) (CXCR2 [1]; CXCL7 at EC80): 94.94 ± 3.57%; Imax Gαi1 (maximum observed inhibitory effect) (CXCR2 [1]; CXCL8 at EC80): 100%; Imax βarr1 (maximum observed inhibitory effect) (CXCR2 [2]; CXCL7 at EC80, n = 3): 100%; IC50 (CXCR2 [2]; [9]): 150 ± 40 nM; Imax βarr1 (maximum observed inhibitory effect) (CXCR2 [2]; CXCL8 at EC80, n = 3): 100%; IC50 (CXCR2 [2]; range across ELR+ chemokines, read-out: IC50 β-arrestin1 recruitment inhibition): 30 to 170 nM
3 | CC(CCO)Nc1nc(SCc2cccc(F)c2F)nc2[nH]nnc12 (centres unmarked) [MVH-33] | > 15000 | > 15000 | <50 | > 15000 | 13100 ± 4760 | 100 | > 15000 | 10100 ± 4800 | > 15000 | 1460 ± 580 | 98.15 ± 4.28 | 660 ± 210 | 92.98 ± 2.58 | 1530 ± 260 | 96.91 ± 2.10 | 1120 ± 260 | 100 | 790 ± 370 | 93.68 ± 7.03 | 340 ± 130 | Imax Gαi1 (maximum observed inhibitory effect) (CXCR2 [1]; CXCL1 at EC80): <50%; Imax Gαi1 (maximum observed inhibitory effect) (CXCR2 [1]; CXCL3 at EC80): <50%; Imax Gαi1 (maximum observed inhibitory effect) (CXCR2 [1]; CXCL6 at EC80): <50%; Imax Gαi1 (maximum observed inhibitory effect) (CXCR2 [1]; CXCL7 at EC80): 98.43 ± 2.62%; Imax Gαi1 (maximum observed inhibitory effect) (CXCR2 [1]; CXCL8 at EC80): <50%; Imax βarr1 (maximum observed inhibitory effect) (CXCR2 [2]; CXCL7 at EC80, n = 3): 100%; IC50 (CXCR2 [2]; [9]): 1510 ± 1010 nM; Imax βarr1 (maximum observed inhibitory effect) (CXCR2 [2]; CXCL8 at EC80, n = 3): 100%
